Tests used:
Conditions in all cases: incubation time: 72 h
BT-549 [1] = experiment: normalised response (% of control), CellTiter-Glo; higher = more viable cells (100 = DMSO, 0 = benzethonium chloride kill control)
Method in brief: (§1)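 Breast cancer cell lines were exposed for 72 h in 384-well plates to compound at 5 concentrations, 10-fold apart, covering a 10,000-fold range fixed for each compound. Plates were read for CellTox Green fluorescence and CellTiter-Glo luminescence and normalised to 0.1 % DMSO (100) and a positive kill control (0). Each value is the normalised signal at one concentration of the series.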

CAL-148 [2] = experiment: as above
Method in brief: as §1

HDQ-P1 [3] = experiment: as above
Method in brief: as §1

SK-BR-3 [4] = experiment: as above
Method in brief: as §1

MDA-MB-468 [5] = experiment: as above
Method in brief: as §1

CAL-51 [6] = experiment: as above
Method in brief: as §1

HCC1937 [7] = experiment: as above
Method in brief: as §1

MCF-10A = experiment: as above
Method in brief: as §1

Hs578T [8] = experiment: as above
Method in brief: as §1

MDA-MB-453 [9] = experiment: as above
Method in brief: as §1

BT-474 [10] = experiment: as above
Method in brief: as §1

HCC1599 [11] = experiment: as above
Method in brief: as §1

HCC1143 [12] = experiment: as above
Method in brief: as §1

CAL-120 [13] = experiment: as above
Method in brief: as §1

MDA-MB-231 [14] = experiment: as above
Method in brief: as §1

MDA-MB-436 [15] = experiment: as above
Method in brief: as §1

DU-4475 [16] = experiment: as above
Method in brief: as §1

MFM-223 [17] = experiment: as above
Method in brief: as §1

CAL-85-1 [18] = experiment: as above
Method in brief: as §1

BT-549 [19] = experiment: normalised viability (% of control), CellTiter-Blue; higher = more viable cells (100 = DMSO, 0 = benzethonium chloride kill control)
Description: (§2)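 DSRT, CellTiter-Blue viability, 72 h incubation. Signal is normalised to DMSO and benzethonium chloride controls. Value is the normalised response at dose 1.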

CAL-148 [20] = experiment: as above
Description: as §2

HDQ-P1 [21] = experiment: as above
Description: as §2

SK-BR-3 [22] = experiment: as above
Description: as §2

MDA-MB-468 [23] = experiment: as above
Description: as §2

CAL-51 [24] = experiment: as above
Description: as §2

HCC1937 [25] = experiment: as above
Description: as §2

Hs578T [26] = experiment: as above
Description: as §2

MDA-MB-453 [27] = experiment: as above
Description: as §2

BT-474 [28] = experiment: as above
Description: as §2

HCC1599 [29] = experiment: as above
Description: as §2

HCC1143 [30] = experiment: as above
Description: as §2

CAL-120 [31] = experiment: as above
Description: as §2

MDA-MB-231 [32] = experiment: as above
Description: as §2

MDA-MB-436 [33] = experiment: as above
Description: as §2

DU-4475 [34] = experiment: as above
Description: as §2

MFM-223 [35] = experiment: as above
Description: as §2

CAL-85-1 [36] = experiment: as above
Description: as §2

| Structure (SMILES) | normalised response (BT-549 [1]) [%] | normalised response (CAL-148 [2]) [%] | normalised response (HDQ-P1 [3]) [%] | normalised response (SK-BR-3 [4]) [%] | normalised response (MDA-MB-468 [5]) [%] | normalised response (CAL-51 [6]) [%] | normalised response (HCC1937 [7]) [%] | normalised response (MCF-10A) [%] | normalised response (Hs578T [8]) [%] | normalised response (MDA-MB-453 [9]) [%] | normalised response (BT-474 [10]) [%] | normalised response (HCC1599 [11]) [%] | normalised response (HCC1143 [12]) [%] | normalised response (CAL-120 [13]) [%] | normalised response (MDA-MB-231 [14]) [%] | normalised response (MDA-MB-436 [15]) [%] | normalised response (DU-4475 [16]) [%] | normalised response (MFM-223 [17]) [%] | normalised response (CAL-85-1 [18]) [%] | normalised viability (BT-549 [19]) [%] | normalised viability (CAL-148 [20]) [%] | normalised viability (HDQ-P1 [21]) [%] | normalised viability (SK-BR-3 [22]) [%] | normalised viability (MDA-MB-468 [23]) [%] | normalised viability (CAL-51 [24]) [%] | normalised viability (HCC1937 [25]) [%] | normalised viability (Hs578T [26]) [%] | normalised viability (MDA-MB-453 [27]) [%] | normalised viability (BT-474 [28]) [%] | normalised viability (HCC1599 [29]) [%] | normalised viability (HCC1143 [30]) [%] | normalised viability (CAL-120 [31]) [%] | normalised viability (MDA-MB-231 [32]) [%] | normalised viability (MDA-MB-436 [33]) [%] | normalised viability (DU-4475 [34]) [%] | normalised viability (MFM-223 [35]) [%] | normalised viability (CAL-85-1 [36]) [%] |
| --- | --- | --- | --- | --- | --- | --- | --- | --- | --- | --- | --- | --- | --- | --- | --- | --- | --- | --- | --- | --- | --- | --- | --- | --- | --- | --- | --- | --- | --- | --- | --- | --- | --- | --- | --- | --- | --- |
| COc1cc([C@@H]2c3cc4c(cc3[C@@H](O[C@@H]3O[C@@H]5CO[C@@H](C)O[C@H]5[C@H](O)[C@H]3O)[C@H]3COC(=O)[C@H]23)OCO4)cc(OC)c1O [Etoposide] (1 nM) | 114 | 104 | 105 | 109 | 101 | 134 | 98.8 | 110 | 105 | 106 | 103 | 107 | 110 | 101 | 113 | 128 | 106 | 107 | 98.6 | 96.9 | 110 | 96.3 | 97.5 | 98 | 87.8 | 86 | 97.3 | 103 | 91.5 | 121 | 107 | 98.1 | 90.8 | 105 | 112 | 100 | 99 |
| O=P1(NCCCl)OCCCN1CCCl (stereo not drawn) [Ifosfamide] (1 nM) | 102 | 99.4 | 98.1 | 93.3 | 95.3 | 78.5 | 94.8 | 92.1 | 98.8 | 90.3 | 94.2 | 94.2 | 89.7 | 92.2 | 97 | 97.8 | 93.7 | 87.2 | 93.9 | 122 | 118 | 119 | 98.3 | 124 | 110 | 87.6 | 55.3 | 107 | 86.7 | 109 | 88.9 | 89.7 | 122 | 95.2 | 116 | 93.8 | 84.3 |
| CC1(C)NC(=O)N(c2ccc([N+](=O)[O-])c(C(F)(F)F)c2)C1=O [Nilutamide] (1 nM) | 103 | 111 | 101 | 111 | 106 | 93.2 | 98.4 | 106 | 101 | 105 | 108 | 109 | 101 | 99.1 | 97.4 | 102 | 105 | 103 | 100 | 95.1 | 103 | 125 | 99.1 | 108 | 100 | 114 | 126 | 112 | 95.7 | 85.1 | 99.5 | 86.6 | 131 | 123 | 115 | 100 | 96 |
| Cc1ccc(C(=O)Nc2ccc(CN3CCN(C)CC3)c(C(F)(F)F)c2)cc1C#Cc1cnc2cccnn12 [Ponatinib] (0.1 nM) | 109 | 105 | 104 | 101 | 105 | 95.4 | 95.3 | 102 | 102 | 101 | 102 | 99.4 | 95.9 | 103 | 99.3 | 105 | 101 | 98 | 103 | 98.3 | 98.5 | 109 | 91.9 | 104 | 87.5 | 87.3 | 111 | 92.5 | 90.1 | 104 | 103 | 97.1 | 107 | 103 | 97.2 | 103 | 101 |

— the supplement of paper PMC4862054
